{"source": "patent US5985937A", "about": "“Use of 2,4-distributed phenol derivatives as 5-lipoxygenase inhibitors” (priority 1994, dated 1999)", "key": {"5-lipoxygenase (5-LO)": {"target": "T1, 5-lipoxygenase (5-LO) (Homo sapiens, UniProt P09917)", "T1 construct": "endogenous in cells; host or cells: human polymorphonuclear leukocytes from donor blood", "T1 sequence (P09917 1-674)": "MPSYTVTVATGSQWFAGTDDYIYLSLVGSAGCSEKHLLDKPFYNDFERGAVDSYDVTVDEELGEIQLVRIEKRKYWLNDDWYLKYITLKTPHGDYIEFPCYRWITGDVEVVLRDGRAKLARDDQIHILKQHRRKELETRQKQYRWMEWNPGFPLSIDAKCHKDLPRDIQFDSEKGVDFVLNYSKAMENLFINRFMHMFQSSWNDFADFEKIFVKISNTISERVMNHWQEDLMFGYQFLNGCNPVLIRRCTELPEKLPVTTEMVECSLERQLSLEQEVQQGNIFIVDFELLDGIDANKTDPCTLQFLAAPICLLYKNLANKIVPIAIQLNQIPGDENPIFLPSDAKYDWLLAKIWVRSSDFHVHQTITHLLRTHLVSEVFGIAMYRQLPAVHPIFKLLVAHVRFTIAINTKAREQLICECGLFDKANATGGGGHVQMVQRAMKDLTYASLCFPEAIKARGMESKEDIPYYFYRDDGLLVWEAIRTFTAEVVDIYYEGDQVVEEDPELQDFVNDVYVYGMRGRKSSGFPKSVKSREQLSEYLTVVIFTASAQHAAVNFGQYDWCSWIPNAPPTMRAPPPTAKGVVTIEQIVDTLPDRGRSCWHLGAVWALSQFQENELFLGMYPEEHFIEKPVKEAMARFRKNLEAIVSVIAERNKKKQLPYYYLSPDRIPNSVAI", "experiment": "5-LO inhibiting activity in human polymorphonuclear leukocytes ([14C]-arachidonic acid, A23187; HPLC of eicosanoids)", "type": "cell-based", "procedure": "In order to show the 5-LO inhibiting activity of the products of the present invention, a specific test based on human polymorphonuclear leukocytes is chosen.\n5-LO Inhibiting Activity in Polymorphonuclear Leukocytes\nBlood was obtained from donors which had not received medication during the ten days previous to the extraction. The blood was treated with an anticoagulant (ACD-A) and was centrifuged at 200 g during 12 min at room temperature, separating the supernatant. A solution of Dextran T-500 in physiological serum was added to the pellet, in order to obtain a final concentration of 0.6% w/v, and was allowed to sediment during 40 min. The supernatant was centrifuged at 180 g during 10 min at room temperature. The pellet was resuspended in 5 ml of Hank's buffer, pH 7.4. After the addition of 3 ml of Lymphoprep, the suspension was centrifuged at 450 g during 30 min, and the layers of supernatant were discarded. The next step was the lysis of the erythrocytes present by adding 2 ml of a saline solution. The resulting volume was adjusted to 10 ml with Hank's buffer, pH 7.4. The solution was centrifuged during 10 min at 180 g; the supernatant was discarded and the resulting pellet was resuspended in 1-2 ml of Hank's buffer, pH 7.4. The cellular density was determined using a haemocytometer using the procedure of microcollection Unopette to determine the levels of platelet contamination. Cellular density was adjusted to 2×10^7 cells/ml with Hank's buffer, pH 7.4 and CaCl2 was added to a final concentration of 1.5 mM.\nAliquots (0.5 ml) of the polymorphonuclear leukocytes suspensions, obtained as described in part (a), were incubated during 5 min at 37° C. in the absence (control) and in the presence of three different concentrations of each drug. Afterwards an ethanol solution of [^14 C]-arachidonic acid and A23187 ionophore was added to obtain a final concentration of 10 and 5 μM, respectively. After 5 min of incubation the reaction was stopped by addition of 0.5 ml of ice-cold ethanol. Samples were centrifuged during 2 min at 1500 g, and the supernatants were kept at -80° C. until analyzed. Controls were carried out using the polymorphonuclear leukocyte suspensions aliquots in the presence of the solvent (DMSO) only.\nThe analysis of the products from the transformation of arachidonic acid through the action of the lipoxygenase (these products being the eicosanoids) was carried out using high pressure liquid chromatography (HPLC), in a reverse phase column (Ultrasphere-ODS, Beckman), injecting 500 μl of the supernatants obtained from the incubations. Elution was carried out using an isocratic mix of mathanol:water:triethylamine:trifluoroacetic acid, 75:25:0.05:0.10, with a flux of 1 ml/min. Detection was carried out with a radioactivity detector with a liquid scintillation cell on-line coupled with the column."}, "seborrheic dermatitis": {"test_system": "seborrheic dermatitis", "experiment": "treatment of dogs with seborrheic dermatitis", "type": "in vivo, dog", "settings": "15 dogs (Cockers), phase I or II, 1 mg/kg.day p.o. plus 2% shampoo", "procedure": "A total of 15 dogs (Cockers) suffering from seborrheic dermatitis in phase I or II were treated with doses of 1 mg/kg.day p.o. of Bobel-24, and were simultaneously washed with a shampoo containing 2% of the same product."}, "[1]": {"test_system": "canine seborrheic dermatitis", "experiment": "clinical trial on canine seborrheic dermatitis", "type": "in vivo, dog", "parameters": "key: +++: very good response, clinically cured; ++: good response, marked lowering in the clinical signs; +: moderate response, improvement; -: negative response or no apparent improvement", "settings": "weekly bath 2% shampoo, 15 days", "procedure": "(§1) The animals had been diagnosed to suffer from seborrheic dermatitis, and the diagnosis was confirmed by a biopsy. The treatment consisted of a weekly bath with a 2% Bobel-24 shampoo and evaluation of the treatment after 15 days. The efficiency of the treatment was analyzed evaluating the following therapeutic symptoms; removal of scabs and scales, greasiness reduction, sheborrheic odor reduction, relieve of the pruritus, and antiinflammatory effect. […] In view of the results the following conclusions were reached: […]"}, "feline asthma": {"test_system": "feline asthma", "experiment": "treatment of cats with feline asthma", "type": "in vivo, cat", "settings": "5 mg/day, cream applied to the leg and licked"}, "bacterial strains": {"test_system": "bacterial strains", "experiment": "mutagenic activity in four bacterial strains", "parameters": "species or system bacteria"}, "[2]": {"test_system": "canine seborrheic dermatitis", "experiment": "clinical trial on canine seborrheic dermatitis", "type": "in vivo, dog", "parameters": "key: +++: very good response, total recovery; ++: good response, functionability recovery; +: moderate response, improvement; -: negative response or no apparent improvement", "settings": "weekly bath 2% shampoo, 15 days", "procedure": "as §1"}, "dogs": {"test_system": "dogs", "experiment": "acute toxicity in dogs", "type": "in vivo, dog", "settings": "after 28 days at doses of 200, 300, 400, 1000 and 2000 mg/kg"}, "[3]": {"settings": "b363 Poodle 6, b364 Mongrel 14, b374 Mongrel 10, b376 Belgian shepherd 10, b382 Poodle 9, b392 Mongrel 5 years"}, "[4]": {"settings": "b369 German shepherd 10, b377 Pekinese 11, b379 German shepherd 3 years"}}, "note": "“Also recorded” adds a separate entry of the source."}
{"molecule": "Oc1c(I)cc(I)cc1I", "note": "[Bobel-24, 2,4,6-triiodophenol]", "values": [{"measurement": "IC50", "setting": "5-lipoxygenase (5-LO)", "result": 10, "unit": "µM"}, {"measurement": "products derived from 5-LO biosynthesis (chromatogram)", "setting": "5-lipoxygenase (5-LO); 25 μM, arachidonic acid 10 μM, FIG. 2", "result": "practically complete disappearance of the products derived from 5-LO biosynthesis"}, {"measurement": "15-HETE and 12-HETE formation", "setting": "5-lipoxygenase (5-LO); 25 μM, arachidonic acid 10 μM, due to contaminating platelets", "result": "increment in 15-HETE and 12-HETE"}, {"measurement": "concentration of biosynthesis products versus concentration of the drug", "setting": "5-lipoxygenase (5-LO); LTB4, 6-trans-LTB4, 5-HETE, 20-OH-LTB4, FIGS. 3 and 4", "result": "decreased in approximately linear with the concentration of the drug used"}, {"measurement": "concentration required for a given inhibition relative to benoxaprofen or ketaconozale", "setting": "5-lipoxygenase (5-LO); ratio from IC50", "result": "approximately one tenth; also recorded: ten times smaller"}, {"measurement": "inhibition at 25 µM", "setting": "5-lipoxygenase (5-LO); read-out: 5-LO inhibitory activity, approximate inhibition percentage", "result": 100, "unit": "%"}, {"measurement": "gradient of decrease of 5-LO products with concentration, compared with the other two drugs", "setting": "5-lipoxygenase (5-LO); versus benoxaprofen and ketoconazole, FIGS. 3 and 4", "result": "gradients were greater"}, {"measurement": "disappearance of the dermatitis", "setting": "seborrheic dermatitis", "result": "practically a total disappearance of the dermatitis"}, {"measurement": "Evolution, etiology allergic", "setting": "[1]; [3]", "result": "++"}, {"measurement": "Evolution, etiology leishmania", "setting": "[1]; [4]", "result": "++"}, {"measurement": "results in feline asthma", "setting": "feline asthma", "result": "satisfactory results in many cases"}, {"measurement": "mutagenic activity", "setting": "bacterial strains", "result": "No mutagenic activity"}, {"measurement": "Evolution, etiology allergic", "setting": "[2]; [3]", "result": "+"}, {"measurement": "Evolution, etiology leishmania", "setting": "[2]; [4]", "result": "+"}, {"measurement": "acute toxicity in dogs", "setting": "dogs", "result": "not observed"}]}
